In PubChem BioAssay (NCI):
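96-well plates; 48 h exposure; 5 concentrations. Endpoints by linear interpolation between flanking doses. Not reached: highest tested concentration assigned. GI50: concentration for 50% inhibition of growth. Definition used: TGI = concentration required for complete inhibition of growth.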

Assays:
Assay in all cases: NCI anticancer screen, dose series, 48 h
CCRF-CEM leukemia = test system: CCRF-CEM leukemia
MDA-MB-231 breast = test system: MDA-MB-231 breast
MDA-MB-435 = test system: MDA-MB-435
NCI-H23 lung = test system: NCI-H23 lung
SF-295 CNS = test system: SF-295 CNS
SK-OV-3 ovarian = test system: SK-OV-3 ovarian
HCC-2998 colon = test system: HCC-2998 colon
IGROV1 ovarian = test system: IGROV1 ovarian
NCI-H522 lung = test system: NCI-H522 lung
SNB-19 CNS = test system: SNB-19 CNS

| Structure (SMILES) | TGI (CCRF-CEM leukemia) [µM] | TGI (MDA-MB-231 breast) [µM] | TGI (MDA-MB-435) [µM] | TGI (NCI-H23 lung) [µM] | TGI (SF-295 CNS) [µM] | TGI (SK-OV-3 ovarian) [µM] | TGI (HCC-2998 colon) [µM] | TGI (IGROV1 ovarian) [µM] | TGI (NCI-H522 lung) [µM] | TGI (SNB-19 CNS) [µM] | GI50 (CCRF-CEM leukemia) [µM] | GI50 (IGROV1 ovarian) [µM] | GI50 (MDA-MB-231 breast) [µM] | GI50 (MDA-MB-435) [µM] | GI50 (NCI-H522 lung) [µM] | GI50 (SF-295 CNS) [µM] | GI50 (SK-OV-3 ovarian) [µM] | GI50 (SNB-19 CNS) [µM] |
| --- | --- | --- | --- | --- | --- | --- | --- | --- | --- | --- | --- | --- | --- | --- | --- | --- | --- | --- |
| CCCCCCCCCc1cccc(N2C(N)=NC(N)=NC2(C)C)c1 | > 100 | 3.37 | 1.83 | 0.277 | 74.6 | > 33.1 |  |  |  |  |  |  |  |  |  |  |  |  |
| O=C(CCC(=O)C(C(=O)c1ccccc1)c1ccccc1)Nc1cccc(C(F)(F)F)c1 (centres undefined) | > 100 |  |  | > 100 | > 100 | > 100 | > 100 | > 100 | > 100 | > 100 |  |  |  |  |  |  |  |  |
| O=C(Nc1ccccc1)NS(=O)(=O)c1ccc(-n2nc3c(c2-c2ccc(Cl)cc2)Cc2ccccc2-3)cc1 | 10.2 | 63.3 | 52.7 |  | 78.1 | > 100 |  | > 100 | 67.4 | > 100 | 3.21 | 28.5 | 14.7 | 16.8 | 19 | 18.2 | 53.9 | 61.5 |
| COc1cc2c3c(c1OC)-c1c(ccc4c1OCO4)CC3(C#N)N(C(=O)c1ccccc1)CC2 (centres undefined) | > 100 |  |  | > 100 | > 100 | > 100 |  | > 100 | > 100 | > 100 |  |  |  |  |  |  |  |  |
| COc1ccc(/C=c2\sc3n(c2=O)C(N)=C(C#N)C(c2ccc(OC)cc2)C=3c2nc3ccccc3[nH]2)cc1 (centres undefined) | > 100 |  |  | 20.2 |  |  | 64.3 | > 100 | > 100 | > 100 |  |  |  |  |  |  |  |  |
| Cc1ccc(S(=O)(=O)OCC23CCC(CC2)C2CC23)cc1 (centres undefined) | > 100 |  |  | > 100 | > 100 | > 100 | > 100 | > 100 |  | > 100 |  |  |  |  |  |  |  |  |
| CCC(=O)c1c(NOC2OC(COC(C)=O)C(OC(C)=O)C(OC(C)=O)C2OC(C)=O)nc(OC)n(C)c1=O (centres undefined) | > 100 |  |  | > 100 | > 100 |  | > 100 | > 100 | > 100 | > 100 |  |  |  |  |  |  |  |  |
| CCc1cccc(C(C)C)c1N1C(=O)C(=O)C(c2nc3ccccc3s2)C(=O)C1=O | > 42.1 |  |  | > 50 | > 50 | > 50 | > 50 | > 50 | 48.6 | > 50 |  |  |  |  |  |  |  |  |
| Clc1ccc(C2SCc3nc4ccccc4n32)cc1Cl (centres undefined) | > 100 |  |  | 27.5 | 24.2 | 36.2 |  | 38.8 | 25 | 22.4 |  |  |  |  |  |  |  |  |
| CC1(C)Cc2cc(C(=O)O)c3c(c2C1=O)COCC3 | > 100 |  |  | > 100 | > 100 | > 100 | > 100 | > 100 | > 100 | > 100 |  |  |  |  |  |  |  |  |
| C1=CC=C2NCCCNC3=CC=CC=CC3=NCCCN=C2C=C1 | > 100 |  |  |  | > 100 | > 100 | > 100 | > 100 |  | > 100 |  |  |  |  |  |  |  |  |
| CCc1cccc(C(C)C)c1NC(=O)C(=O)C(CC(=O)Nc1ccc(Cl)c(Cl)c1)C(=O)OC (centres undefined) | > 100 |  |  | > 100 | > 100 | > 100 | > 100 | > 100 | > 100 | > 100 |  |  |  |  |  |  |  |  |
| S=c1cc(S)sc2c1c(=S)sc1nc3ccccn3c(=S)c12 | > 100 |  |  | > 100 | > 100 |  | > 100 |  |  | > 100 |  |  |  |  |  |  |  |  |
